Results from patent US20260001922A1, “PEPTIDES TARGETING SODIUM CHANNELS TO TREAT PAIN” (priority 2022, published 2026).
Positions of bridges follow the written chain, without caps; N, C: chain ends. Non-standard residues stand in square brackets, D forms with d. Residues, ends and D or L forms follow the SMILES beside them. Agb = N=C(N)NCC[C@H](N)C(=O)O

What was measured:
hERG channel = hERG channel (Homo sapiens, UniProt Q12809); assay: in vitro
human Nav1.7 = human Nav1.7 (Homo sapiens, UniProt Q15858); assay: cell-based; details: for IC50: whole-cell voltage clamp, HEK 293 cells, read-out: hNav1.7 IC50
Sequence of human Nav1.7 (Q15858 whole entry): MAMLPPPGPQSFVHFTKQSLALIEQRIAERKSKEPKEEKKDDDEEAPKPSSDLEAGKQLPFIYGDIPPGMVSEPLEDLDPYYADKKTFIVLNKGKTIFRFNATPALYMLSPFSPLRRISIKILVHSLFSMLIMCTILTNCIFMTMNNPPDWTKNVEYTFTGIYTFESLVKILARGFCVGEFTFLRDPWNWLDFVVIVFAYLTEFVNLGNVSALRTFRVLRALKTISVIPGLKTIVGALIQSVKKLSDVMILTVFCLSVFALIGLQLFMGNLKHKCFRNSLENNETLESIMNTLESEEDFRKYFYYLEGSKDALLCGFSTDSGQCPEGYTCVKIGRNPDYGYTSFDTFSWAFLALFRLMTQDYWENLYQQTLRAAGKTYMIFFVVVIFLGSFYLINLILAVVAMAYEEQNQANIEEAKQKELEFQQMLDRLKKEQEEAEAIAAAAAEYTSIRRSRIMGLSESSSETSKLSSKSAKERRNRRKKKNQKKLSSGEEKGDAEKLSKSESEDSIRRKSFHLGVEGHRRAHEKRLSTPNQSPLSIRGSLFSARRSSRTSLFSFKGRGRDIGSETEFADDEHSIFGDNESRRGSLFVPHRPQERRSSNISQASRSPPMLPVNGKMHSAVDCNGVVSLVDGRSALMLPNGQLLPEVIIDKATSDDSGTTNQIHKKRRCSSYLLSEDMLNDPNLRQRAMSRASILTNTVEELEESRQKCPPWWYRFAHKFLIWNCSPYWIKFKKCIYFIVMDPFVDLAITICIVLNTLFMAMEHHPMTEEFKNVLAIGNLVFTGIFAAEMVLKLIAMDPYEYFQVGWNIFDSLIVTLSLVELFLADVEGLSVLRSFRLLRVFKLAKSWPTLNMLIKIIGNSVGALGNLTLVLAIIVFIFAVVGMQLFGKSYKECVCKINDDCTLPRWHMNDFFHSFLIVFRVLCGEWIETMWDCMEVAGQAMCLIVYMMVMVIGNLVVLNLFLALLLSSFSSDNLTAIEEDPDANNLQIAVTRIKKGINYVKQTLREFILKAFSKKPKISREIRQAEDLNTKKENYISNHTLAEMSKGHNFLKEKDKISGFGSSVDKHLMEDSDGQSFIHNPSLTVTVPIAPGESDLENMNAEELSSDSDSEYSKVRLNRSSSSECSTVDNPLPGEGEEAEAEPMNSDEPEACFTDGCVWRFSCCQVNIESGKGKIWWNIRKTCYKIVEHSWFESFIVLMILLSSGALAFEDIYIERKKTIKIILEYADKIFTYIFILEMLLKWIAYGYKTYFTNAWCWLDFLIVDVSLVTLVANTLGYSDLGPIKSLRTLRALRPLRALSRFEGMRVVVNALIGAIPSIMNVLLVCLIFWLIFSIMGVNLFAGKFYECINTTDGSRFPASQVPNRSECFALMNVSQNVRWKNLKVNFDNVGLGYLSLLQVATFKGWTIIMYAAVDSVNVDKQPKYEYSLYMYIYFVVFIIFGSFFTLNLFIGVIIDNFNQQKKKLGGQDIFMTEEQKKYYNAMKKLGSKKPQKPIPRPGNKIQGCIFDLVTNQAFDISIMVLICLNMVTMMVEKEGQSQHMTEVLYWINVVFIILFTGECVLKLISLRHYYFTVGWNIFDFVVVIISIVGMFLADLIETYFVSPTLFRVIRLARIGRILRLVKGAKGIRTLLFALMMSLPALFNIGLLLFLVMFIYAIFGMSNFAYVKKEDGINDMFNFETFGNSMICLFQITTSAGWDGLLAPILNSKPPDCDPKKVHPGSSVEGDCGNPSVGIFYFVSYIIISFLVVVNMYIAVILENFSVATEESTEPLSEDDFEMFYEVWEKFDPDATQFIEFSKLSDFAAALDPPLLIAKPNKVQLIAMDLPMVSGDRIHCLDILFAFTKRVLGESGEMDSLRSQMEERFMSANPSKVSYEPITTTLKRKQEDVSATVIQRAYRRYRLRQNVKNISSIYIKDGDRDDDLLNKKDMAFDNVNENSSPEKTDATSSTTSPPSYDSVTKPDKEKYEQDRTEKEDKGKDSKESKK
Method: HEK-293 cells stably expressing human Nav1.1, Nav1.4, Nav1.5, Nav1.6 and Nav1.7 were obtained from Dr. Chris Lossin. Rat Nav1.3 expressing HEK-293 cells were from Dr. Steven Waxman (Yale University, New Haven, CT). These cell lines were cultured in complete DMEM supplemented with 10% FBS, 1% penicillin/streptomycin, and G418. The human Nav1.8 channel (co-expressing with human Navβ1 and Navβ2 subunits) and the Nav1.9 channel (co-expressing with human Trkb, Navβ1, and Navβ2 subunits) were obtained from Icagen (Durham, NC). hNav1.8 cells cultured with G418 (0.4 mg/mL) and puromycin ([…]/mL) and hNav1.9 cells were cultured with G418 (0.4 mg/mL), puromycin ([…]), and zeocin (0.05 mg/mL). Human Nav1.2 were expressed transiently by transfection of the hNav1.2 cDNA (from Dr. Alan L. Goldin, UC Irvine, CA) into HEK-293 cells.
Whole-cell patch-clamp experiments on recombinant channels were conducted manually at room temperature (22-24° C.) using an EPC-10 amplifier (HEKA Electronik, Lambrecht/Pfalz, Germany). Cells were trypsinized and plated onto poly-1-lysine-coated coverslips. All recordings were done in normal Ringer external bath solution containing (in mM) 160 NaCl, 4.5 KCl, 2 CaCl2), 1 MgCl2, 10 HEPES (pH 7.4 and 305 mOsm) as. Patch pipettes were pulled from soda lime glass (micro-hematocrit tubes, Kimble Chase, Rochester, NY) and had resistances of 2-3 MQ when filled with CsF-based internal solution containing (in mM) 10 NaF, 110 CsF, 20 CsCl, 10 HEPES, 2 EGTA, (pH 7.4, 310 mOsm). Data acquisition and analysis were performed with Pulse-PulseFit (HEKA Electronik GmbH, Germany), IgorPro (WaveMetrics, Portland, OR), and Origin 9.0 software (OriginLab Corporation, Northampton, MA). Cells were held at −90 mV and voltage stepped to −120 mV for 200 ms before depolarizing to −10 mV for 50 msec to elicit inward currents. Control test currents were monitored for 5-10 min to ensure that the amplitude and kinetics of the response were stable. Series resistance was compensated to 80-90% and linear leak currents and capacitance artefacts were corrected using a P/4 subtraction method. Pulse interval was 0.1 Hz and peptides were applied to individual cells using a glass transfer pipette directly into the recording bath. For measuring inhibition, currents were allowed to saturate with repeated pulsing before addition of subsequent doses. IC50 values were derived from measurements performed on individual cells that were tested with at least three or more concentrations of each peptide.

hNav1.7 = hNav1.7 (Homo sapiens, UniProt Q15858); details: peptides of the literature; cited from earlier work
Sequence of hNav1.7 (Q15858 whole entry): as above

human Nav1.2 = target: T1, human Nav1.2 (Homo sapiens, UniProt Q99250); assay: cell-based; details: HEK293, read-out: block of hNav1.2 current (% inhibition)
T1 construct: host or cells: HEK-293 (transient)

human Nav1.4 = human Nav1.4 (Homo sapiens, UniProt P35499); assay: cell-based; details: HEK293, read-out: block of hNav1.4 current (% inhibition)
human Nav1.5 = human Nav1.5 (Homo sapiens, UniProt Q14524); assay: in vitro; format: cell-based; details: pH 7.4, read-out: block of hNav1.5 current (% inhibition)
Sequence of human Nav1.5 (Q14524 whole entry): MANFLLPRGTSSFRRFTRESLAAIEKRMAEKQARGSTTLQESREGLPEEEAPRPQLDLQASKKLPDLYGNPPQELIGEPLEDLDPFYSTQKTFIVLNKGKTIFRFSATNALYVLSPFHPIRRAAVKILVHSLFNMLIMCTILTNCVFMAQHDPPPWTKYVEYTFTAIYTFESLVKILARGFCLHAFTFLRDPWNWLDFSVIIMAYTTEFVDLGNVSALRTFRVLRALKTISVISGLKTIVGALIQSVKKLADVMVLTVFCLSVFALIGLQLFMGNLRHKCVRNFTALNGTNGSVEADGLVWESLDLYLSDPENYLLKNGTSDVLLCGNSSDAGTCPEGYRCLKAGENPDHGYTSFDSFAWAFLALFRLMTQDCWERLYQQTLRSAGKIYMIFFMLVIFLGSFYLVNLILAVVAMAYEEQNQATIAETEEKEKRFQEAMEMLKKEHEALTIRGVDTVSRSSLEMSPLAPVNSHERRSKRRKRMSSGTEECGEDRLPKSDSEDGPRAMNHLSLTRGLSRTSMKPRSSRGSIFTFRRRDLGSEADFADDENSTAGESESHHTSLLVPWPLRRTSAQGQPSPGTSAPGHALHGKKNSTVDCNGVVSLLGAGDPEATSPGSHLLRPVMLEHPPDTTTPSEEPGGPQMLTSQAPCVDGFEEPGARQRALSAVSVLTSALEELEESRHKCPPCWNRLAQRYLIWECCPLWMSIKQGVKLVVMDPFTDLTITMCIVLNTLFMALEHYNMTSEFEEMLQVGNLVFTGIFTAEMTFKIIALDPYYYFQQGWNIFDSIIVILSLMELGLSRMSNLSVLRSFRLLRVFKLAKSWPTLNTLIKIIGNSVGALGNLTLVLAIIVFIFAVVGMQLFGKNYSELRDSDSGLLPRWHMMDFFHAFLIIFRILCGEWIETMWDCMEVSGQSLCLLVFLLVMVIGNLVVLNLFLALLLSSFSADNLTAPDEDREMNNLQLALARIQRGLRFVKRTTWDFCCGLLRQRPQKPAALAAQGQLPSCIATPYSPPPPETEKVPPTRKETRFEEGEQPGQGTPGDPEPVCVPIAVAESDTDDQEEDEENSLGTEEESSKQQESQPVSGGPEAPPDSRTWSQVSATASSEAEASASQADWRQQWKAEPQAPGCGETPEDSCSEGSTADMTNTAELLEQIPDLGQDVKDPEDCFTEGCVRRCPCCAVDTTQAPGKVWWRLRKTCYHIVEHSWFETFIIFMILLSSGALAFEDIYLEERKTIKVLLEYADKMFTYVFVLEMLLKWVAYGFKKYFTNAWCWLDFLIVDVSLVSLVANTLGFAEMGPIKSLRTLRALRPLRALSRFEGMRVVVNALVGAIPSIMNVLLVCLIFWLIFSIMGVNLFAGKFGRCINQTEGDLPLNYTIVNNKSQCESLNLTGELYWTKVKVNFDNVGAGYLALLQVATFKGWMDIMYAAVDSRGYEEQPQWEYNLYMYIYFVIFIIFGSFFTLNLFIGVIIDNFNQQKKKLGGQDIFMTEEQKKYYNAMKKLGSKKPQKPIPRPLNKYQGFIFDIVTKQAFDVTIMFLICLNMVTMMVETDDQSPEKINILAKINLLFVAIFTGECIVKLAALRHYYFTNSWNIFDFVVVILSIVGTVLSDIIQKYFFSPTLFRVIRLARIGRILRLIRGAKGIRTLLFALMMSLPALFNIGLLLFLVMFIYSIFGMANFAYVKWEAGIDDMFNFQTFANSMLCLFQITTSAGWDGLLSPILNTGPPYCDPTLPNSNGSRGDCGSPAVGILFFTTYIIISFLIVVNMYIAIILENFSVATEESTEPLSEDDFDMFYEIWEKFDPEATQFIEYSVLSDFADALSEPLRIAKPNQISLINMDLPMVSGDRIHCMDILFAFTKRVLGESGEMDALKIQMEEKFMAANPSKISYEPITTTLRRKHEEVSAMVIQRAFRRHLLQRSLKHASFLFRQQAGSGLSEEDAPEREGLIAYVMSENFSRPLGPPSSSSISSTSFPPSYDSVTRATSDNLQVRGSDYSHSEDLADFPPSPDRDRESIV

[1] = test system: rat models of thermal and chemical nociception; set-up: motor effect via intrathecal administration: dose or concentration left out as unconfirmed; details: cited from earlier work

**Q.** Which IC50 (hERG channel) does the source give for CSCC[C@@H]1NC(=O)[C@H](Cc2c[nH]c3ccccc23)NC(=O)[C@H](CCCCN)NC(=O)[C@H](CCC(N)=O)NC(=O)[C@@H](NC(=O)[C@@H](N)Cc2c[nH]cn2)CSSC[C@@H]2NC(=O)[C@@H]3CSSC[C@@H](C(=O)N[C@@H](CCCNC(=N)N)C(=O)N[C@@H](CCCCN)C(=O)N[C@@H](CCC(=O)O)C(=O)N[C@@H](CC(C)C)C(=O)N[C@@H](CC(C)C)C(N)=O)NC(=O)[C@H](Cc4c[nH]c5ccccc45)NC(=O)[C@H](CC(C)C)NC(=O)[C@H](CCCNC(=N)N)NC(=O)[C@H](CSSC[C@H](NC(=O)[C@H]([C@@H](C)O)NC(=O)[C@H](CCC(N)=O)NC1=O)C(=O)N[C@@H](CC(=O)O)C(=O)N[C@@H](CCCCN)C(=O)N[C@@H](CC(=O)O)C(=O)N[C@@H](CCCNC(=N)N)C(=O)N[C@@H](CCCCN)C(=O)N3)NC(=O)[C@H](CCCNC(=N)N)NC(=O)[C@H](Cc1ccccc1)NC(=O)CNC(=O)[C@H](CCC(=O)O)NC2=O [PTx2-3258] here?
**A.** Its IC50 is 1000 nM.

**Q.** For CC(C)C[C@@H]1NC(=O)CNC(=O)[C@H](CCC(=O)O)NC(=O)[C@@H]2CSSC[C@H](NC(=O)[C@@H](N)Cc3ccc(O)cc3)C(=O)N[C@@H](CCC(N)=O)C(=O)N[C@@H](CCCCN)C(=O)N[C@@H](C)C(=O)N[C@@H](Cc3ccccc3)C(=O)N[C@@H](Cc3c[nH]c4ccccc34)C(=O)N[C@@H]([C@@H](C)O)C(=O)N[C@H]3CSSC[C@H](NC(=O)[C@H](CCCNC(=N)N)NC1=O)C(=O)N[C@@H](CCNC(=N)N)C(=O)N[C@@H](CC(C)C)C(=O)N[C@@H](Cc1c[nH]c4ccccc14)C(=O)N[C@H](C(=O)N[C@@H](CCCNC(=N)N)C(=O)N[C@@H](CCCCN)C(=O)N[C@@H](CCC(=O)O)C(=O)N[C@@H](CC(C)C)C(=O)N[C@@H](Cc1c[nH]c4ccccc14)C(N)=O)CSSC[C@H](NC(=O)[C@H](CCCCN)NC(=O)[C@H](CCCNC(=N)N)NC(=O)[C@H](C)NC(=O)[C@H](CO)NC(=O)[C@H](CC(=O)O)NC3=O)C(=O)N2 [PTx2-3063] (H-YCQKAFWTCDSARKCCEGLRC[Agb]LWCRKELW-NH2; disulfide 2-16, 9-21, 15-25), which IC50 (human Nav1.7) is on record?
**A.** Its IC50 is 154 nM.

**Q.** For ECQKWMWTCDSARACCEGLRCKLWCRKII [JzTx-V], which IC50 (hNav1.7) is on record?
**A.** Its IC50 is 0.6 nM.

**Q.** With “DCLKFGWKCNPRNDKCCSGLKSGSNHNWCKLHL [ProTx-III]” as the compound, how does the IC50 (hNav1.7) read?
**A.** The IC50 was 11.5 nM.

**Q.** For CSCC[C@@H]1NC(=O)[C@H](Cc2c[nH]c3ccccc23)NC(=O)[C@H](CCCCN)NC(=O)[C@H](CCC(N)=O)NC(=O)[C@@H](NC(=O)[C@@H](N)Cc2ccc(O)cc2)CSSC[C@@H]2NC(=O)[C@@H]3CSSC[C@@H](C(=O)N[C@@H](CCCNC(=N)N)C(=O)N[C@@H](CCCCN)C(=O)N[C@@H](CCC(=O)O)C(=O)N[C@@H](CC(C)C)C(=O)N[C@@H](CC(C)C)C(N)=O)NC(=O)[C@H](Cc4c[nH]c5ccccc45)NC(=O)[C@H](CC(C)C)NC(=O)[C@H](CCCNC(=N)N)NC(=O)[C@H](CSSC[C@H](NC(=O)[C@H]([C@@H](C)O)NC(=O)[C@H](CCC(N)=O)NC1=O)C(=O)N[C@@H](CC(=O)O)C(=O)N[C@@H](CCCCN)C(=O)N[C@@H](CC(=O)O)C(=O)N[C@@H](CCCNC(=N)N)C(=O)N[C@@H](CCCCN)C(=O)N3)NC(=O)[C@H](CCCNC(=N)N)NC(=O)[C@H](CC(C)C)NC(=O)CNC(=O)[C@H](CCC(=O)O)NC2=O [PTx2-3066] (H-YCQKWMQTCDKDRKCCEGLRCRLWCRKELL-NH2; disulfide 2-16, 9-21, 15-25), which IC50 (human Nav1.7) is on record?
**A.** Its IC50 is 30.8 nM.

**Q.** What about the inhibition at 10 µM (human Nav1.2) of the same compound?
**A.** Its inhibition at 10 µM is about 41%.

**Q.** And the inhibition at 10 µM (human Nav1.4)?
**A.** Its inhibition at 10 µM is about 34%.

**Q.** And the inhibition at 10 µM (human Nav1.5)?
**A.** The inhibition at 10 µM was about 1%.

**Q.** With CC(C)C[C@@H]1NC(=O)CNC(=O)[C@H](CCC(=O)O)NC(=O)[C@@H]2CSSC[C@H](NC(=O)[C@@H](N)Cc3ccc(O)cc3)C(=O)N[C@@H](CCC(N)=O)C(=O)N[C@@H](CCCCN)C(=O)N[C@@H](C)C(=O)N[C@@H](Cc3ccccc3)C(=O)N[C@@H](Cc3c[nH]c4ccccc34)C(=O)N[C@@H]([C@@H](C)O)C(=O)N[C@H]3CSSC[C@H](NC(=O)[C@H](CCCNC(=N)N)NC1=O)C(=O)N[C@@H](CCCNC(=N)N)C(=O)N[C@@H](CC(C)C)C(=O)N[C@@H](Cc1c[nH]c4ccccc14)C(=O)N[C@H](C(=O)N[C@@H](CCCNC(=N)N)C(=O)N[C@@H](CCCCN)C(=O)N[C@@H](CCC(=O)O)C(=O)N[C@@H](CC(C)C)C(=O)N[C@@H](Cc1c[nH]c4ccccc14)C(N)=O)CSSC[C@H](NC(=O)[C@H](CCCCN)NC(=O)[C@H](CCCNC(=N)N)NC(=O)[C@H](C)NC(=O)[C@H](CO)NC(=O)[C@H](CC(=O)O)NC3=O)C(=O)N2 [PTx2-3064] (H-YCQKAFWTCDSARKCCEGLRCRLWCRKELW-NH2; disulfide 2-16, 9-21, 15-25) as the compound, how does the inhibition at 10 µM (human Nav1.2) read?
**A.** Its inhibition at 10 µM is about 92%.

**Q.** What about the inhibition at 10 µM (human Nav1.4) of the same compound?
**A.** The inhibition at 10 µM was about 66%.

**Q.** What about the inhibition at 10 µM (human Nav1.5) of the same compound?
**A.** The inhibition at 10 µM was about 25%.

**Q.** Which “effect on hNav1.7 currents” value (human Nav1.7; at 5 μM) does the source give for CC(C)C[C@@H]1NC(=O)CNC(=O)[C@H](CCC(=O)O)NC(=O)[C@@H]2CSSC[C@H](NC(=O)[C@@H](N)Cc3ccc(O)cc3)C(=O)N[C@@H](CCC(N)=O)C(=O)N[C@@H](CCCCN)C(=O)N[C@@H](C)C(=O)N[C@@H](Cc3ccccc3)C(=O)N[C@@H](Cc3c[nH]c4ccccc34)C(=O)N[C@@H]([C@@H](C)O)C(=O)N[C@H]3CSSC[C@H](NC(=O)[C@H](CCCNC(=N)N)NC1=O)C(=O)N[C@@H](CCNC(=N)N)C(=O)N[C@@H](CC(C)C)C(=O)N[C@@H](Cc1c[nH]c4ccccc14)C(=O)N[C@H](C(=O)N[C@@H](CCCCN)C(=O)N[C@@H](CCCCN)C(=O)N[C@@H](CCC(=O)O)C(=O)N[C@@H](CC(C)C)C(=O)N[C@@H](Cc1c[nH]c4ccccc14)C(N)=O)CSSC[C@H](NC(=O)[C@H](CCCCN)NC(=O)[C@H](CCCNC(=N)N)NC(=O)[C@H](CCC(=O)O)NC(=O)[C@H](CO)NC(=O)[C@H](CC(=O)O)NC3=O)C(=O)N2 [PTx2-2954] here?
**A.** The value was “no effect”.

**Q.** What does the source list for CSCC[C@@H]1NC(=O)CNC(=O)[C@H](CCC(=O)O)NC(=O)[C@@H]2CSSC[C@H](NC(=O)[C@@H](N)Cc3ccc(O)cc3)C(=O)N[C@@H](CCC(N)=O)C(=O)N[C@@H](CCCCN)C(=O)N[C@@H](Cc3c[nH]c4ccccc34)C(=O)N[C@@H](CCSC)C(=O)N[C@@H](Cc3c[nH]c4ccccc34)C(=O)N[C@@H]([C@@H](C)O)C(=O)N[C@H]3CSSC[C@H](NC(=O)[C@H](C(C)C)NC1=O)C(=O)N[C@@H](CCCNC(=N)N)C(=O)N[C@@H](CC(C)C)C(=O)N[C@@H](Cc1c[nH]c4ccccc14)C(=O)N[C@H](C(=O)N[C@@H](CCCCN)C(=O)N[C@@H](CCCCN)C(=O)N[C@@H](CCCCN)C(=O)N[C@@H](CC(C)C)C(=O)N[C@@H](Cc1c[nH]c4ccccc14)C(=O)O)CSSC[C@H](NC(=O)[C@H](CCCCN)NC(=O)[C@H](CCCNC(=N)N)NC(=O)[C@H](CCC(=O)O)NC(=O)[C@H](CO)NC(=O)[C@H](CC(=O)O)NC3=O)C(=O)N2 [ProTx-II]?
**A.** effect on nociceptive assays ([1]; 0.24 μg i.t., Merck's study): no effect; motor effect via intrathecal administration ([1]; Merck's study): laming effect; maximum tolerated dose ([1]; in 10 μL, rats, Janssen's study): 2 µg; analgesic effect following intrathecal injection ([1]; rat models of thermal and chemical nociception, Janssen Biotech): strong analgesic effect

**Q.** For CC(C)C[C@@H]1NC(=O)CNC(=O)[C@H](CCC(=O)O)NC(=O)[C@@H]2CSSC[C@H](NC(=O)[C@@H](N)Cc3ccc(O)cc3)C(=O)N[C@@H](CCC(N)=O)C(=O)N[C@@H](CCCCN)C(=O)N[C@@H](C)C(=O)N[C@@H](Cc3ccccc3)C(=O)N[C@@H](Cc3c[nH]c4ccccc34)C(=O)N[C@@H]([C@@H](C)O)C(=O)N[C@H]3CSSC[C@H](NC(=O)[C@H](CCCNC(=N)N)NC1=O)C(=O)N[C@@H](CCNC(=N)N)C(=O)N[C@@H](CC(C)C)C(=O)N[C@@H](Cc1c[nH]c4ccccc14)C(=O)N[C@H](C(=O)N[C@@H](CCCNC(=N)N)C(=O)N[C@@H](CCCCN)C(=O)N[C@@H](CCC(=O)O)C(=O)N[C@@H](CC(C)C)C(=O)N[C@@H](Cc1c[nH]c4ccccc14)C(N)=O)CSSC[C@H](NC(=O)[C@H](CCCCN)NC(=O)[C@H](CCCNC(=N)N)NC(=O)[C@H](CCC(=O)O)NC(=O)[C@H](CO)NC(=O)[C@H](CC(=O)O)NC3=O)C(=O)N2 [PTx2-2955], which IC50 (human Nav1.7) is on record?
**A.** Its IC50 is 185 nM.
